In ChEMBL document CHEMBL4673302, “Efficient synthesis and antitumor evaluation of 4-aminomethyl-N-arylpyrazoles: Discovery of potent and selective agents for ovarian cancer” (Bioorg Med Chem, 2021):

Key:
HaCaT = assay: Cytotoxicity against human HaCaT cells assessed as cell growth inhibition measured after 48 hrs by sulforhodamine B assay; type: cell-based; details: hacat, 48 h
K562 = assay: Anticancer activity against human K562 cells assessed as cell growth inhibition measured after 48 hrs by sulforhodamine B assay; type: functional; details: 48 h
HT-29 = assay: Anticancer activity against human HT-29 cells assessed as cell growth inhibition measured after 48 hrs by sulforhodamine B assay; type: functional
OVCAR-3 = assay: Anticancer activity against human OVCAR-3 cells assessed as cell growth inhibition measured after 48 hrs by sulforhodamine B assay; type: functional; details: 48 h
MCF7 = assay: Anticancer activity against human MCF7 cells assessed as cell growth inhibition measured after 48 hrs by sulforhodamine B assay; type: functional
U-251 = assay: Anticancer activity against human U-251 cells assessed as cell growth inhibition measured after 48 hrs by sulforhodamine B assay; type: functional
786-0 = assay: Anticancer activity against human 786-0 cells assessed as cell growth inhibition measured after 48 hrs by sulforhodamine B assay; type: functional
PC-3 = assay: Anticancer activity against human PC-3 cells assessed as cell growth inhibition measured after 48 hrs by sulforhodamine B assay; type: functional
NCI-H460 = assay: Anticancer activity against human NCI-H460 cells assessed as cell growth inhibition measured after 48 hrs by sulforhodamine B assay; type: functional

Question: With `CCOC(=O)c1nn(-c2ccccc2)c(-c2ccc(F)cc2)c1CNC(C)(C)C` [listing 1 of 2 here] as the compound, how does the GI50 (HaCaT) read?
Answer: 32.9 µM

Question: And the GI50 (K562)?
Answer: 161 µM

Question: And the GI50 (HT-29; 48 h)?
Answer: 29.9 µM

Question: And the GI50 (OVCAR-3)?
Answer: 92.1 µM

Question: And the GI50 (MCF7; 48 h)?
Answer: 517 µM

Question: And the GI50 (U-251; 48 h)?
Answer: > 580 µM

Question: And the GI50 (786-0; 48 h)?
Answer: 319 µM

Question: And the GI50 (PC-3; 48 h)?
Answer: 82.1 µM

Question: And the GI50 (NCI-H460; 48 h)?
Answer: 179 µM

Question: `CCOC(=O)c1nn(-c2ccccc2)c(-c2ccc([N+](=O)[O-])cc2)c1CNC(C)(C)C` was tested. Which GI50 (HaCaT) did it give?
Answer: 130 µM

Question: What about the GI50 (K562) of the same compound?
Answer: 191 µM

Question: What about the GI50 (HT-29; 48 h) of the same compound?
Answer: 35.1 µM

Question: What about the GI50 (OVCAR-3) of the same compound?
Answer: 288 µM

Question: And the GI50 (MCF7; 48 h)?
Answer: 168 µM

Question: What about the GI50 (U-251; 48 h) of the same compound?
Answer: > 546 µM

Question: What about the GI50 (786-0; 48 h) of the same compound?
Answer: > 546 µM

Question: What about the GI50 (PC-3; 48 h) of the same compound?
Answer: 128 µM

Question: And the GI50 (NCI-H460; 48 h)?
Answer: 327 µM

Question: `CCOC(=O)c1nn(-c2ccc(Cl)cc2)c(-c2ccc(C)cc2)c1CNC(C)(C)C` [listing 1 of 2 here] was tested. Which GI50 (HaCaT) did it give?
Answer: > 542 µM

Question: What about the GI50 (K562) of the same compound?
Answer: > 542 µM

Question: And the GI50 (HT-29; 48 h)?
Answer: > 542 µM

Question: And the GI50 (OVCAR-3)?
Answer: > 542 µM

Question: And the GI50 (MCF7; 48 h)?
Answer: > 542 µM

Question: And the GI50 (U-251; 48 h)?
Answer: > 542 µM

Question: And the GI50 (786-0; 48 h)?
Answer: > 542 µM

Question: What about the GI50 (PC-3; 48 h) of the same compound?
Answer: > 542 µM

Question: What about the GI50 (NCI-H460; 48 h) of the same compound?
Answer: > 542 µM

Question: What does the source list for `CCOC(=O)c1nn(-c2ccc(Cl)cc2)c(-c2ccc([N+](=O)[O-])cc2)c1CNC(C)(C)C` [listing 1 of 2 here]?
Answer: GI50 (HaCaT): 10.3 µM; GI50 (K562): 181 µM; GI50 (HT-29; Homo sapiens, HT-29, 48 h): 42.3 µM; GI50 (OVCAR-3): 206 µM; GI50 (MCF7; 48 h): > 548 µM; GI50 (U-251; Homo sapiens, U-251, 48 h): > 548 µM; GI50 (786-0; 48 h): 316 µM; GI50 (PC-3; Homo sapiens, PC-3, 48 h): > 548 µM; GI50 (NCI-H460; 48 h): > 548 µM

Question: Which GI50 (HaCaT) does the source give for `CCOC(=O)c1nn(-c2ccccc2)c(-c2ccc(F)cc2)c1CNC(C)(C)C` [listing 2 of 2 here] here?
Answer: 74.5 µM

Question: What about the GI50 (K562) of the same compound?
Answer: 75.7 µM

Question: What about the GI50 (HT-29; 48 h) of the same compound?
Answer: 65.4 µM

Question: And the GI50 (OVCAR-3)?
Answer: 0.013 µM

Question: What about the GI50 (MCF7; Homo sapiens, MCF7, 48 h) of the same compound?
Answer: 306 µM

Question: What about the GI50 (U-251; Homo sapiens, U-251, 48 h) of the same compound?
Answer: > 632 µM

Question: What about the GI50 (786-0; Homo sapiens, 786-0, 48 h) of the same compound?
Answer: > 632 µM

Question: And the GI50 (PC-3; Homo sapiens, PC-3, 48 h)?
Answer: 69.3 µM

Question: What about the GI50 (NCI-H460; 48 h) of the same compound?
Answer: 365 µM

Question: Which results are given for `CCOC(=O)c1nn(-c2ccccc2)c(-c2ccccc2)c1CNC(C)(C)C`?
Answer: GI50 (HaCaT): 77 µM; GI50 (K562): 9.62 µM; GI50 (HT-29; Homo sapiens, HT-29, 48 h): 69.6 µM; GI50 (OVCAR-3): 1.01 µM; GI50 (MCF7; 48 h): 81.7 µM; GI50 (U-251; 48 h): 81.5 µM; GI50 (786-0; 48 h): 144 µM; GI50 (PC-3; 48 h): 39.9 µM; GI50 (NCI-H460; 48 h): 76.9 µM

Question: Which results are given for `CCOC(=O)c1nn(-c2ccc(Cl)cc2)c(-c2ccc(C)cc2)c1CNC(C)(C)C` [listing 2 of 2 here]?
Answer: GI50 (HaCaT): 144 µM; GI50 (K562): 106 µM; GI50 (HT-29; 48 h): 106 µM; GI50 (OVCAR-3): 49.2 µM; GI50 (MCF7; 48 h): 141 µM; GI50 (U-251; 48 h): 151 µM; GI50 (786-0; Homo sapiens, 786-0, 48 h): > 588 µM; GI50 (PC-3; 48 h): 249 µM; GI50 (NCI-H460; Homo sapiens, NCI-H460, 48 h): 277 µM

Question: With `CCOC(=O)c1nn(-c2ccc(Cl)cc2)c(-c2ccc(OC)cc2)c1CNC(C)(C)C` [listing 1 of 2 here] as the compound, how does the GI50 (HaCaT) read?
Answer: 60.1 µM

Question: And the GI50 (K562)?
Answer: 6.1 µM

Question: What about the GI50 (HT-29; 48 h) of the same compound?
Answer: 45.3 µM

Question: What about the GI50 (OVCAR-3) of the same compound?
Answer: 35.4 µM

Question: And the GI50 (MCF7; 48 h)?
Answer: 238 µM

Question: What about the GI50 (U-251; Homo sapiens, U-251, 48 h) of the same compound?
Answer: 431 µM

Question: And the GI50 (786-0; 48 h)?
Answer: 119 µM

Question: And the GI50 (PC-3; 48 h)?
Answer: 210 µM

Question: What about the GI50 (NCI-H460; 48 h) of the same compound?
Answer: 27 µM

Question: How did the GI50 (HaCaT) turn out when `CCOC(=O)c1nn(-c2ccccc2)c(-c2ccc(Cl)cc2)c1CNC(C)(C)C` was run?
Answer: > 559 µM

Question: What about the GI50 (K562) of the same compound?
Answer: > 559 µM

Question: And the GI50 (HT-29; 48 h)?
Answer: > 559 µM

Question: What about the GI50 (OVCAR-3) of the same compound?
Answer: > 559 µM

Question: And the GI50 (MCF7; 48 h)?
Answer: > 559 µM

Question: What about the GI50 (U-251; 48 h) of the same compound?
Answer: > 559 µM

Question: What about the GI50 (786-0; 48 h) of the same compound?
Answer: > 559 µM

Question: What about the GI50 (PC-3; 48 h) of the same compound?
Answer: > 559 µM

Question: What about the GI50 (NCI-H460; 48 h) of the same compound?
Answer: > 559 µM

Question: Which GI50 (HaCaT) does the source give for `CCOC(=O)c1nn(-c2ccc(Cl)cc2)c(-c2ccc([N+](=O)[O-])cc2)c1CNC(C)(C)C` [listing 2 of 2 here] here?
Answer: 145 µM

Question: What about the GI50 (K562) of the same compound?
Answer: 14.8 µM

Question: What about the GI50 (HT-29; 48 h) of the same compound?
Answer: 40.8 µM

Question: And the GI50 (OVCAR-3)?
Answer: 16.1 µM

Question: And the GI50 (MCF7; 48 h)?
Answer: 205 µM

Question: What about the GI50 (U-251; 48 h) of the same compound?
Answer: 340 µM

Question: What about the GI50 (786-0; 48 h) of the same compound?
Answer: 51.2 µM

Question: And the GI50 (PC-3; 48 h)?
Answer: 304 µM

Question: What about the GI50 (NCI-H460; 48 h) of the same compound?
Answer: 52.8 µM

Question: `CCOC(=O)c1nn(-c2ccc(Cl)cc2)c(-c2ccc(OC)cc2)c1CNC(C)(C)C` [listing 2 of 2 here] was tested. Which GI50 (HaCaT) did it give?
Answer: > 524 µM

Question: What about the GI50 (K562) of the same compound?
Answer: > 524 µM

Question: And the GI50 (HT-29; 48 h)?
Answer: > 524 µM

Question: And the GI50 (OVCAR-3)?
Answer: > 524 µM

Question: And the GI50 (MCF7; 48 h)?
Answer: > 524 µM

Question: And the GI50 (U-251; 48 h)?
Answer: > 524 µM

Question: What about the GI50 (786-0; 48 h) of the same compound?
Answer: > 524 µM

Question: And the GI50 (PC-3; 48 h)?
Answer: > 524 µM

Question: And the GI50 (NCI-H460; 48 h)?
Answer: > 524 µM

Question: For `CCOC(=O)c1nn(-c2ccccc2)c(-c2ccc(Br)cc2)c1CNC(C)(C)C`, which GI50 (HaCaT) is on record?
Answer: > 509 µM

Question: What about the GI50 (K562) of the same compound?
Answer: > 509 µM

Question: What about the GI50 (HT-29; 48 h) of the same compound?
Answer: > 509 µM

Question: What about the GI50 (OVCAR-3) of the same compound?
Answer: > 509 µM

Question: What about the GI50 (MCF7; 48 h) of the same compound?
Answer: > 509 µM

Question: And the GI50 (U-251; 48 h)?
Answer: > 509 µM

Question: And the GI50 (786-0; 48 h)?
Answer: > 509 µM

Question: And the GI50 (PC-3; 48 h)?
Answer: > 509 µM

Question: And the GI50 (NCI-H460; 48 h)?
Answer: > 509 µM
